# Assay results: PMC10958225, “Therapeutic potential of orally applied KB-R7943 in streptozotocin-induced neuropathy in rats” (Heliyon, 2024)
# Legend:
# [1] = system: STZ-treated rats with neuropathy; assay: Paw pressure (Randall-Selitto) test; format: in vivo, rat; conditions: 10 mg/kg p.o. once daily, vs. NPveh
# Description: (§1) On the day of diabetic state induction, rats were deprived of food for 6 h (from 8 a.m. to 2 p.m.). A single i.p. injection was applied with 55 mg/kg STZ in the ice-cold citrate buffer (0.1 M pH 4.4). The observed polydipsia, polyuria, reduced thriving with lower body weight, and poor coating appearance indirectly indicated the development of diabetes. On day 28, after 6 h of fasting, blood glucose was measured with an Xpress Statstrip Glucometer (Nova Biomedical Corporation, Waltham, MA, USA) from the tail vein. A cut-off value of blood glucose >13 mmol/l was adopted. […] Controls were once i.p. injected with ice-cold citrate buffer 0.1 M pH 4.4 only.
# (§2) Three animals per cage were housed for the experiment 2 (Fig. 3B). Rats were gently manipulated daily before undertaking the actual behavior tests. […] Body weight (BW), coat score (CS), CPT, R–S, and FT were evaluated on day 28th post-STZ, and after that, rats were distributed into the treatment groups as follows. • C-Veh – Controls, vehiculum treatment (n = 12) • NP-Veh – STZ-treated rats with neuropathy, vehiculum treatment (n = 12) • NP-KB-R7943 – 5 mg - STZ-treated rats, with neuropathy, KB-R7943 5 mg/kg treatment (n = 12) • NP-KB-R7943 – 10 mg – STZ-treated rats, with neuropathy, KB-R7943 10 mg/kg (n = 12) • NP-AMT – 10 mg - STZ-treated rats, with neuropathy, amitriptyline 10 mg/kg (n = 12). […]
# [2] = system: STZ-treated rats with neuropathy; assay: 24-hour spontaneous physical activity; format: in vivo, rat; conditions: 10 mg/kg p.o. once daily from day 28, from day 41
# Description: as §1, §2
# [3] = system: STZ-treated rats with neuropathy; assay: Coat state score; format: in vivo, rat; conditions: chronic p.o. treatment from day 28, day 42
# Description: as §1
# as §2, with “3B).” for “3B). Rats were gently manipulated daily before undertaking the actual behavior tests.”
# Coat state, water consumption, and body weight were evaluated weakly. […] Water consumption was measured per cage. […]
# [4] = system: STZ-treated rats with neuropathy; assay: Formalin test (0.5% formalin); format: in vivo, rat
# Description: as §1
# (§3) Three animals per cage were housed for the experiment 2 (Fig. 3B). Rats were gently manipulated daily before undertaking the actual behavior tests. One week after adaptation, the Randl-Stellito (R–S) test, cold plate test (CPT), and formalin tests (FT) were performed at baseline. After that, the diabetes model was made with 48 rats. Twelve animals served as controls. Body weight (BW), coat score (CS), CPT, R–S, and FT were evaluated on day 28th post-STZ, and after that, rats were distributed into the treatment groups as follows. • C-Veh – Controls, vehiculum treatment (n = 12) • NP-Veh – STZ-treated rats with neuropathy, vehiculum treatment (n = 12) • NP-KB-R7943 – 5 mg - STZ-treated rats, with neuropathy, KB-R7943 5 mg/kg treatment (n = 12) • NP-KB-R7943 – 10 mg – STZ-treated rats, with neuropathy, KB-R7943 10 mg/kg (n = 12) • NP-AMT – 10 mg - STZ-treated rats, with neuropathy, amitriptyline 10 mg/kg (n = 12).
# (§4) OraPlus was used as a vehiculum for gavage (16 gauge feeding tube 10 ml/kg) in all rats. KB-R7943 in two doses (5 or 10 mg/kg) or amitriptyline 10 mg/kg was applied once daily until day 49. Behavior tests were performed […] after the oral gavage of the corresponding day, in the afternoon, starting from 2 p.m. […] On day 41, an FST was performed, and at 2 p.m., rats were placed individually for 24 h to assess spontaneous physical activity. After that, on day 42, the same battery of the tests as on day 28 were reassessed.
# The formalin test was performed 1 h after the R–S test to decrease the interaction with the mechanical stimulus from the previous test. For the same reason, the left hind paws were injected. A needle (U-100 Insulin Syringe, Beckton and Dickinson, Dublin, Ireland) was used. A low-dose intraplantar injection of formalin 50 mcl 0.5% was done, and rats were placed in individual transparent cases for observation. Two independent observers measured the time spent licking or biting the injected paw, and the first (0–5 min) and the second post-injection phase (20–30 min) were reported in sec.
# [5] = system: STZ-treated rats with neuropathy; assay: Cold plate test; format: in vivo, rat; conditions: 10 mg/kg p.o. once daily, end of the trial
# Description: as §1
# as §2, with “3B).” for “3B). Rats were gently manipulated daily before undertaking the actual behavior tests.”
# This test was used for allodynia testing. […] Two independent observers recorded the time-to-paw lifting. […]
# [6] = system: STZ-treated rats with neuropathy; assay: Mortality and adverse effects during chronic oral treatment; format: in vivo; conditions: p.o. once daily day 28 to 49
# Description: as §3
# as §4, with “After that, on day 42, the same battery of the tests as on day 28 were reassessed.” left out
# [7] = system: STZ-treated rats with neuropathy; assay: Forced swim test (FST); format: in vivo, rat; conditions: 10 mg/kg p.o. once daily from day 28, test on day 41, 5-min test
# Description: as §1, §2
structure (smiles),measurement,setting,value
CN(C)CCC=C1c2ccccc2CCc2ccccc21 [amitriptyline],effect on mechanical allodynia (R–S test),[1],partly reversed
same,24-h spontaneous physical activity,[2],1678.33 ± 282.00 beam breaks
same,effect on coat score,[3],ameliorated
same,effect on formalin test first phase (0–5 min),"[4]; 10 mg/kg p.o. once daily, vs. NP-Veh",attenuated
same,effect on formalin test second phase (20–30 min),"[4]; amitriptyline 10 mg/kg, KB-R7943 5 and 10 mg/kg p.o. once daily, vs. NPveh, dose-dependent",attenuated
same,effect on cold allodynia (cold plate test),[5],demonstrated a reversal effect
same,mortality during treatment,[6],No one rat died
same,immobility time in FST,[7],137.50 ± 31.94 s
